Values joined by “and” are separate entries in the source; they are usually repeats but may differ in a detail not shown here. Equal entries are not always repeated. Where two headings read alike, the source gives them in different places.
How the values were obtained:
human OGG1 enzyme [1] = biological target: T1, human OGG1 enzyme (Homo sapiens, UniProt O15527); experiment: Differential scanning fluorimetry (DSF) thermal shift assay; type: binding; set-up: ∆Tm (K): unit of the concentration uncertain; settings: for ΔTm: concentration not given
Description: The temperature was increased from 20 °C to 85 °C with 10 readings/degree. Tm values were calculated using an excel template and fitting to the Boltzmann equation in Prism v.6.07 (GraphPad Software).

human OGG1 enzyme [2] = biological target: T1, human OGG1 enzyme; experiment: OGG1 glycosylase activity assay (enzyme inhibition, APE1-coupled fluorescence); type: biochemical
Description: “8” signifies 8-oxoA and “FAM” and “Dab” signify fluorescein and dabcyl (TriLink Biotech). Briefly, compounds dissolved in DMSO were dispensed using an Echo 550 (Labcyte), followed by transfer of enzyme and substrate solutions manually with a 16-channel pipette or with a Multidrop (Thermo Scientific). The plates were centrifuged, sealed and incubated at room temperature overnight (15 h) and read the following morning in an Hidex Sense plate reader (Hidex Oy) using a 485-nm filter with a bandwidth of 10 nm for excitation and a 535-nm filter with a bandwidth of 20 nm for emission.

[3] = test system: NF-κB activation in HEK293T pGF NF-κB cells; experiment: TNF-α induced NF-κB activation assay; type: cell-based; settings: Homo sapiens, HEK-293T; NFκB activation assay; ± SD; read-out: pEC50 (converted)
Description: The inhibition of TNF-α induced NF-κB activation was measured in HEK293T cells transfected with the pGreenfire NF-κB plasmid. This is a plasmid that has NF-κB response elements (TRE) coupled to GFP and luciferase expression. When the NF-κB is activated by TNF-α, it binds to the TRE and induces GFP expression, and the fluorescence can be measured in a plate reader. The cells were authenticated with STR profiling, frozen down and these stocks were used in experiments. The HEK293T pGF NF-κB cells were kept in DMEM with 5% FBS and 1% P/S but, when seeded for the assay the medium was changed to DMEM FluoroBrite with 1% dialyzed FBS. All cell culture reagents were purchased from Thermo Fisher Scientific. Compounds were nano-dispensed (Echo acoustic dispenser) in 96-well, black/clear, assay plates (Corning #3904), duplicate plates, in 8-points dose-response curves, 1:2 dilutions, with DMSO compensation (0.3% DMSO). Cells were seeded at 30000 cells/well in medium containing 10 ng/mL of TNF-α (Sigma-Aldrich), except negative control wells which only contained cells in medium. Cells were cultured for 24 hours in a humidified incubator at 37 °C with 5% CO2 after which the GFP fluorescence was measured in a Sense plate reader (Hidex) with ex485/em535. The RFU data from the duplicate plates were combined to calculate % inhibition of NF-κB activation and IC50-values were calculated using XLfit (IDBS). In parallel with the NF-κB assay, a CellTiterGlo (Promega) cell viability assay was run to exclude compounds affecting cell viability. Compounds were nano-dispensed (Echo acoustic dispenser) in assay plates in 11-points dose-response curves, 1:3 dilutions, without DMSO compensation, with duplicates on the same plate. Cells were seeded at 7500 cells/well in 25 µL medium (DMEM FluoroBrite with 1% dialyzed FBS) containing 10 ng/mL TNF-α and cultured for 24 hours, with column 24 containing only culture medium. After equilibration to room temperature, the CellTiterGlo reagents were mixed and 25 µL/well were added to the cell plate. After 2 min mixing of the plate on an orbital shaker, the plate was incubated for 10 min at room temperature followed by luminescence reading in Sense. The cell viability was calculated compared to untreated control wells and the EC50 values were determined in XLfit (IDBS). […]

[4] = Table S2, virtual fragment screen hits, read-out: pIC50 (converted)
[5] = 495 (unit uncertain) as printed in sheet footnote
[6] = 99 (unit uncertain) as printed in sheet footnote

T1 sequence (O15527 whole entry): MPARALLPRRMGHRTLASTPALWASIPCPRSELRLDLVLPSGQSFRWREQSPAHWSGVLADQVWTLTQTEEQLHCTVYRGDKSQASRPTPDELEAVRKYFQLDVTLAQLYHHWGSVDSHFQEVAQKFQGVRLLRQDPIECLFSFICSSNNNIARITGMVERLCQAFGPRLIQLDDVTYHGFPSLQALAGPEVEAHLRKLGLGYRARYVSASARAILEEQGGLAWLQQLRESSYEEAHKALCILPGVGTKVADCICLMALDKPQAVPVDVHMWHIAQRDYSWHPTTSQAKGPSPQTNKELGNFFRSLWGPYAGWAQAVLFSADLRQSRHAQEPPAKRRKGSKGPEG

Structure (SMILES)	∆Tm (K) (human OGG1 enzyme [1]; 99 μM)	∆Tm (K) (human OGG1 enzyme [1]; 495 µM)	further results
Cc1ccn2c(NC(=O)C3(Oc4ccc(Cl)cc4)CC3)nnc2c1 [ZINC000341519123]	0.37 K		
Cc1cc(=O)c(C(=O)NC2(C)CC2(C)C)c[nH]1 (stereo not shown) [ZINC000620078540]		0.03 K	
CCc1ccc(C(=O)NC[C]2CS(=O)(=O)c3ccccc3O2)cc1 [ZINC001002782586]	-0.13 K		
O=C(Cn1c(C(F)(F)F)nc2ccccc21)NCc1ccccc1 [ZINC000032814728]	0.79 K		
CN1C(=O)Cc2cc(Nc3ncnc4c(F)cccc34)ccc21 [ZINC000350560229]	-0.01 K		
COCc1csc(NCc2ccccc2)n1 [ZINC000196610182]		-0.06 K	
O=C(NCc1nc(-c2ccccc2)no1)c1cn(-c2ccccc2)nn1 [ZINC000507023994]	-0.92 K		
Cc1csc(NC(=O)c2ccc(N)cc2)n1 [ZINC000005740683]		0.52 K	
COc1ccc([C]2CCCCCN2C(=O)Nc2noc(C)c2C)cc1 [ZINC000455661485]	-0.14 K		
O=C(Nc1noc2c1CCCC2)C1CC12CCC2 (stereo not shown) [compound 1]			OGG1 inhibition, dose-response (Figure2C) (human OGG1 enzyme [2]; Concentration (M) 9.67e-7): 3.85 and 6.91; OGG1 inhibition, dose-response (Figure2C) (human OGG1 enzyme [2]; Concentration (M) 0.000248): 16.25 and 9.26; OGG1 inhibition, dose-response (Figure2C) (human OGG1 enzyme [2]; Concentration (M) 0.000495): 25.93 and 22.47; inhibition at 99 µM (human OGG1 enzyme [2]; at 99 μM, read-out: percent inhibition of OGG1): < 50%; IC50 (human OGG1 enzyme [2]; listed as Fragment 1): too weak to determine an IC50 value; IC50 (human OGG1 enzyme [2]; read-out: IC50): > 99 µM; ∆Tm (K) (human OGG1 enzyme [1]; [5]): 2.8 K; ΔTm (human OGG1 enzyme [1]): 2.8 K
O=C(NCc1ccn(-c2ccccc2)n1)c1cc(-c2ccccc2)no1 [ZINC000617287579]	-0.19 K		
Cn1ncc(NC(=O)N[C]2COc3ccc(Cl)cc32)c1C(F)F [ZINC000337657385]	-0.16 K		
C[C]C(=O)Nc1nnc2ccccn12 [ZINC000613462643]	0.05 K		
Cc1ccc(NC(=O)Nc2c[nH]nc2C)s1 [ZINC000075413056]		0.35 K	
C[C](CNC(=O)c1cn2c(n1)CCC2)Oc1ccc(Cl)cc1 [ZINC000047544921]	0.05 K		
O=C(Cc1ccc(-n2ncc3c2CNCC3)cc1)Nc1noc2c1CCCC2 [compound 15]			EC50 [3]: 13.2 µM
C[C](NC(=O)c1ccc(C)nc1)c1cnn(-c2ccc(F)cc2)c1C [ZINC000142711832]	-0.11 K		
Cc1csc(Nc2ncnc3sccc23)n1 [ZINC000163077816]		-0.51 K	
Cc1conc1NC(=O)c1csc2cncn12 [ZINC000772563154]		0.52 K	
O=C(NCC1([C](O)c2ccccc2)CC1)c1ccc(Cl)cc1 [ZINC000700852234]	-0.27 K		
C[C](CCc1ccccc1)C(=O)N1CC(c2ccccc2)C1 [ZINC000342133714]	0.08 K		
c1cnc2ccc(CNc3nnc4ccccn34)cc2c1 [ZINC000155922887]	inactivea		
COc1ccc2[nH]cc(CC(=O)Nc3nnc4cc(C)ccn34)c2c1 [ZINC000520908378]	-0.38 K		
Cc1conc1NC(=O)c1nc(Cl)cs1 [ZINC000789997344]		-0.03 K	
Cn1c(=O)n(C)c2cc(Nc3ncnc4ccccc34)ccc21 [ZINC000358521717]	0.43 K		
C[C](CNC(=O)c1cn(-c2ccccc2)nn1)Oc1ccc(C)cc1 [ZINC000080662795]	-0.11 K		
Cc1cnc(Nc2ncnc3ccccc23)s1 [ZINC000031949200]		-0.03 K	
Cn1nc(Nc2ncnc3cc(F)c(F)cc23)cc1C1CC1 [ZINC000439491208]	-0.04 K		
Cn1ncc2c(Nc3cccc(-c4cccs4)c3)ncnc21 [ZINC000445022399]	-0.23 K		

The next lines start with results.

∆Tm (K) (human OGG1 enzyme [1]; 99 μM)	∆Tm (K) (human OGG1 enzyme [1]; 495 µM)	Structure (SMILES)	further results
-0.42 K		Cc1ccc(NC(=O)N2CC(O)(c3ccc(Cl)cc3)C2)s1 [ZINC000776423770]	
0.23 K		O=C(NC1CN(C(=O)c2ccc(Cl)s2)C1)c1ccc(Cl)o1 [ZINC000357905855]	
	1.6 K and > 1 K	CC1(C)CC1(C)NC(=O)c1cc2cccn2cn1 (stereo not shown) [compound 2]	IC50 (human OGG1 enzyme [2]; [4]): > 100 µM; ∆Tm (K) (human OGG1 enzyme [1]; [5]): 1.6 K
	-0.15 K	CC(=O)Nc1nc(-c2ccc(Cl)cc2)n[nH]1 [ZINC000517746346]	
	0.26 K	Cc1n[nH]cc1CNC(=O)C1Cc2ccccc21 (stereo not shown) [ZINC000088452370]	
0.48 K		Cc1ccc(NC(=O)N2CC(O)(c3ccc(Cl)cc3)C2)s1 [ZINC000633809751]	
	0.08 K	Cc1n[nH]cc1CNC(=O)C(C)c1ccccc1 (stereo not shown) [ZINC000182379077]	
	-0.02 K	Cc1ccccc1CNC(=O)Nc1cnnn1C [ZINC000787791820]	
	-0.01 K	COc1ccc(F)cc1CNC(=O)c1cn[nH]c1 [ZINC000188683358]	
	0.67 K	O=C(NCc1ccccc1O)c1ccc(F)cc1 [ZINC000082283111]	
	-0.03 K	Cc1nocc1NC(=O)Nc1ccnn1C(C)C [ZINC000866108350]	
	0.11 K	COCC(C)(O)C(=O)Nc1cnc2ccccn12 (stereo not shown) [ZINC000618358369]	
0.15 K		Cc1cscc1NC(=O)NCc1cccc(-n2cncn2)c1 [ZINC001624168456]	
0.27 K		CC(C)(NC(=O)NCc1ccco1)c1ccc(Br)cc1 [ZINC000088254610]	
	-0.15 K	CCC(C)(O)C(=O)Nc1nnc2n1CCCC2 (stereo not shown) [ZINC000935297684]	
-0.08 K		Cc1cccc2nc(C(=O)NCc3ccc(Br)o3)cn12 [ZINC000677630607]	
	-0.08 K	Cc1cc(NC(=O)c2coc(C3CC3)n2)cs1 [ZINC000634423932]	
4.1 ± 0.7 K		O=C(Nc1noc2c1CCCC2)[C@H]1Cc2ccccc21 [compound 5]	IC50 (human OGG1 enzyme [2]; read-out: IC50): 58 µM; ∆Tm (K) (human OGG1 enzyme [1]; [6]): 4.1 ± 0.7 K; ΔTm (human OGG1 enzyme [1]): 4.1 K
0.65 K		O=C(NCC1(O)CN(C(=O)c2cccnn2)C1)c1ccc(Cl)cc1 [ZINC000584413720]	

∆Tm (K) (human OGG1 enzyme [1]; 99 μM)	∆Tm (K) (human OGG1 enzyme [1]; 495 µM)	Structure (SMILES)	further results
-0.07 K		O=C(NCc1cnn(-c2ccccc2)c1)c1cc(C2CC2)no1 [ZINC000045518705]	
0.83 K		C=Cc1ccc(C(=O)NCc2cn(-c3ccccc3)nc2C)cc1 [ZINC000192206237]	
	-0.05 K	Cn1ccnc1NC(=O)c1nc(Cl)cs1 [ZINC000851710058]	
-0.07 K		Cc1ccc(C(=O)NCc2nc(-c3cccnc3)no2)cc1C [ZINC001046413262]	
	0.38 K	CC1CC1CNC(=O)C1CCc2cccnc21 (stereo not shown) [ZINC000341791847]	
	0.01 K	Cc1cc(CNC(=O)c2c(O)cccc2F)[nH]n1 [ZINC000681276767]	
Inactivea		CCc1ccc(CC(=O)Nc2nnc(C3CC3)n2C)cc1 [ZINC000157183023]	
	0.6 K	Cc1ccc(CNC(=O)c2ccc(F)nc2)cc1 [compound 3]	IC50 (human OGG1 enzyme [2]; [4]): > 100 µM; ∆Tm (K) (human OGG1 enzyme [1]; [5]): 0.6 K
	0.07 K	Cc1csc(NC(=O)N2CC(C)C(O)C2)n1 (stereo not shown) [ZINC000350512979]	
0.39 K		Cc1ccc(CNC(=O)Nc2cnn(C)c2C(F)(F)F)c(C)c1 [ZINC000000241283]	
	0.5 K	CC1(C)CC(NC(=O)c2csc3cncn23)C1 [compound 4]	IC50 (human OGG1 enzyme [2]; [4]): > 100 µM; ∆Tm (K) (human OGG1 enzyme [1]; [5]): 0.5 K
0.00 K and 0 K		CCN(Cc1ccccc1)S(=O)(=O)NC1Cc2ccccc2C1 [ZINC001146929060]	
-0.03 K		O=S(=O)(Nc1ccc(Cl)cc1F)N1CCc2ccccc2C1 [ZINC000990255105]	
	0.18 K	CCCC1CCCC1C(=O)NCc1c[nH]nc1C (stereo not shown) [ZINC000294547394]	
	0.07 K	O=C(NCC1(O)CCC1)c1nc(Cl)cs1 [ZINC000789956517]	
	0.01 K	Cc1n[nH]cc1CNC(=O)NC1(C)CC1(C)C (stereo not shown) [ZINC000663691150]	
0.17 K		COc1ccc(C2(CNC(=O)c3ccc(F)s3)CCC2)cc1 [ZINC000572161337]	
0.10 K and 0.1 K		O=C(NCc1ccc2oc(=O)[nH]c2c1)c1cc(C2CC2)on1 [ZINC000025095824]	
1.1 ± 0.5 K		O=C(Cc1c(F)cccc1F)Nc1noc2c1CCCC2 [compound 6]	IC50 (human OGG1 enzyme [2]; Table 1, mean ± SD, at least three independent replicates, read-out: pIC50 (converted)): 36.3 µM; ∆Tm (K) (human OGG1 enzyme [1]; [6]): 1.1 ± 0.5 K
